Data published in publication PMC9409145, “(-)-Epicatechin Is a Biased Ligand of Apelin Receptor” (International Journal of Molecular Sciences, 2022).

Key:
[1] = molecular target: T1, apelin receptor (APLNR; APJ), PathHunter eXpress (Homo sapiens, UniProt P35414); experiment: beta-arrestin-2 recruitment, enzyme complementation chemiluminescence, specific binding with Hill slope fit; format: cell-based; conditions: agonist; apparent constant from functional response, not a radioligand; 1 h incubation; CHO-K1 cells; read-out: Kd
T1 construct: full-length receptor with C-terminal ProLink (beta-galactosidase fragment) tag, stably expressed in CHO-K1 with enzyme-acceptor-tagged beta-arrestin-2
T1 sequence (P35414 1-380): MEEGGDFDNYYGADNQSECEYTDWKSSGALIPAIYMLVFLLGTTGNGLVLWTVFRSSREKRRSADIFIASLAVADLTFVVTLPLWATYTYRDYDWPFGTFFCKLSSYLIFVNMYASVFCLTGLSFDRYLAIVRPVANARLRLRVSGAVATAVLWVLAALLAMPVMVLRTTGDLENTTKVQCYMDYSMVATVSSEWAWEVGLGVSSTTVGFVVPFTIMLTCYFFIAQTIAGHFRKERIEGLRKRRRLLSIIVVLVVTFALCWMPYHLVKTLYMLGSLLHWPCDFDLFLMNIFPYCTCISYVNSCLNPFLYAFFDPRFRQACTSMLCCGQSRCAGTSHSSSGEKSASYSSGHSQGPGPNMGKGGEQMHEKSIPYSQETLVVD
Description: beta-arrestin-2 recruitment, enzyme complementation chemiluminescence, specific binding with Hill slope fit on apelin receptor (APLNR; APJ), PathHunter eXpress

[2] = molecular target: T2, apelin receptor (mouse skeletal muscle) (Mus musculus, UniProt Q9WV08); experiment: affinity chromatography on immobilised epicatechin, MS identification; format: binding; conditions: muscle homogenate, 4 °C overnight, PBS pH 7.4; acid elution (MES pH 4.5); immobilised ligand
T2 construct: gene Aplnr
T2 sequence (Q9WV08 1-377): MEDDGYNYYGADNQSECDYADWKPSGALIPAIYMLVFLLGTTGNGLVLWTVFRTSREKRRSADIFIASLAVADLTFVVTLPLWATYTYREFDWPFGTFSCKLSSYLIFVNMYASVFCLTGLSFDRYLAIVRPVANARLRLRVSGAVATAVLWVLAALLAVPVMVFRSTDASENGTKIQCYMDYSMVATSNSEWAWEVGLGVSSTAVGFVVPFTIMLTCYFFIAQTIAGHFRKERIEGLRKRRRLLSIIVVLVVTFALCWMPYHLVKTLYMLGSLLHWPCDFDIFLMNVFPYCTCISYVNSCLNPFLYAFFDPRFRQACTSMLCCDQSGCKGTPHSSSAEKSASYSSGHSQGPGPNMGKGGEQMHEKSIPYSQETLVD

[3] = molecular target: T1, apelin receptor (APLNR; APJ), PathHunter eXpress; experiment: beta-arrestin-2 recruitment, enzyme complementation chemiluminescence; format: cell-based; conditions: antagonist; cells pre-incubated with ML221, then EC as agonist

SMILES | EC50 [1] | affinity chromatography on immobilised epicatechin, MS identification [2] | beta-arrestin-2 recruitment, enzyme complementation chemiluminescence [3]
Oc1cc(O)c2c(c1)O[C@H](c1ccc(O)c(O)c1)[C@H](O)C2 [EC, (-)-epicatechin] | 1.76 pM | Five proteins were identified as receptors: apelin receptor | –
O=C(Oc1coc(CSc2ncccn2)cc1=O)c1ccc([N+](=O)[O-])cc1 [ML221, 5-[(4-Nitrobenzoyl)oxy]-2-[(2-pyrimidinylthio)methyl]-4H-pyran-4-one] | – | – | the interaction of the antagonist with the receptor and the blockage of the effect of EC
